According to patent EP4781986A1, “PHARMACEUTICAL COMPOSITION HAVING IMPROVED PHARMACOKINETIC PROPERTIES” (Sichuan Purity Pharmaceutical Co., Ltd., priority 2023, dated 2025):

Assays:
Format in all cases: in vitro ADME
Plasma of SD rat = test: plasma protein binding rate test, equilibrium dialysis (rat); details: 1 µM, 37°C, 6 hours
Experimental: (§1) Protein binding rates of the compound of the present invention in plasma of rat, monkey and human were determined by an equilibrium dialysis method. Tested compounds of the present invention were the compounds in Examples 6 and 8.
(§2) 3.1 A dry dialysis membrane was rinsed with ultrapure water for 2-3 times, and then soaked in a phosphate buffer for 1 hour for later use. Polytetrafluoroethylene module was soaked in 20% ethanol for 30 minutes, and then surface moisture was dried with dust-free paper for later use. The pretreated dialysis membrane was assembled into a dialysis plate according to the product specification, and one side (receptor compartment) of an osmotic membrane in each dialysis well was added with 100 µL of receptor fluid (100 mM phosphate buffer solution plus 0.002% Tween 80).
(§3) 3.2 The plasma was put into a centrifuge tube, a working solution of a tested substance was added into the plasma, wherein a final concentration was 1 µM, and the mixture was turned upside down and mixed evenly (this step was carried out in ice bath). 20 µL of drug-containing plasma each was taken, and was respectively transferred to a 96-well sample plate according to two parts in parallel, and stored in a refrigerator at -20°C as a T0 sample.
(§4) 3.3 Another 100 µL of the above drug-containing plasma was transferred to the other side (sample compartment) of the membrane in the dialysis device according to two parts in parallel, and incubated under vibration at a constant temperature of 37°C for 6 hours. […]
(§5) A plasma protein binding rate and a recovery rate of the compound in plasma were calculated by the following formulas: dissociation percentage (%) = CB /CA; [formula] plasma protein binding rate (fb%) = 1−dissociation percentage (%); [formula] recovery rate (%) = (CB+CA)/CT0 [formula] wherein CB was a concentration of the compound in the receptor fluid after equilibrium dialysis; CA was a concentration of the compound in the drug-containing plasma after equilibrium dialysis; and CT0 was an initial concentration of the compound in plasma.

[1] = stability test in liver microsomes (human)
Experimental: (§6) The stability of the compound of the present invention in liver microsomes of rat, monkey and human was determined. Tested compounds of the present invention were the compounds in Examples 6 and 8 , and a control drug was Zavegepant.
(§7) 3.2 An appropriate amount of liver microsome solution was transferred into a 1 mL 96-deep-well plate, added with a tested drug liquid (or a probe substrate solution), and pre-incubated in a thermal mixer at 37°C for 5 minutes. Two parts of mixed solutions were taken out from the system and added with 1×PBS to replace NADPH, and the mixed solutions were taken out at 0 and 60 minutes respectively, and added with methanol (containing an internal standard) to terminate the reaction. In the remaining mixed system, each well was added with NADPH to start the reaction. In the tested substance group, mixed solutions were taken out from the system at 0, 5, 15, 30, 45 and 60 minutes, and in the control group, mixed solutions were taken out from the system at 0, 30 and 60 minutes, and the mixed solutions were added methanol (containing an internal standard) to terminate the reaction. All samples of the terminated reaction were mixed evenly and centrifuged in a centrifuge at 3800 rpm for 15 minutes, and the supernatant was taken for LC-MS/MS analysis.
(§8) A peak area was determined by an extracted ion chromatogram. A slope value k was determined by linear regression of a remaining percentage of a parent drug relative to a natural logarithm of an incubation time curve. According to the slope, in-vitro half-life periods (t1/2) were respectively calculated, and in-vitro intrinsic clearance rates (CLint, represented by µL/min/mg protein) were calculated. Calculation formulas were as follows: t1/2 = ln2/k = 0.693/k; and CLint = 0.693/t1/2 /liver microsome protein concentration [formula]

Plasma of human = test: plasma protein binding rate test, equilibrium dialysis (human); details: 1 µM, 37°C, 6 hours
Experimental: as §1, §2, §3, §4, §5

[2] = stability test in liver microsomes (rat)
Experimental: as §6, §7, §8

[3] = stability test in liver microsomes (monkey)
Experimental: as §6, §7, §8

[4] = system: Plasma of cynomolgus monkey; test: plasma protein binding rate test, equilibrium dialysis (monkey); details: 1 µM, 37°C, 6 hours
Experimental: as §1, §2, §3, §4, §5

[2H]C([2H])([2H])N1CCC(N2CCN(C(=O)[C@@H](Cc3cc(C)c4[nH]ncc4c3)NC(=O)N3CCC(c4cc5c([nH]c4=O)SCC5)CC3)CC2)CC1 [Example 29, (R)-N-(3-(7-methyl-1H-indazole-5-yl)-1-(4-(1-(methyl-d3)piperidine-4-yl)piperazine-1-yl)-1-oxopropan-2-yl)-4-(6-oxo-2,3,6,7-tetrahydrothieno[2,3-b]pyridine-5-yl)piperidine-1-formamide]
fb (%) (Plasma of SD rat): 64.3% | half-life at 1 µM ([1]; Human liver microsomes 0.5 mg/mL, 1.0 µM): > 2 h | % remaining (60 min) ([1]; Human liver microsomes, 60 min): 115% | fb (%) (Plasma of human): 50.2% | half-life at 1 µM ([2]; Rat liver microsomes 0.5 mg/mL, 1.0 µM): > 2 h | % remaining (60 min) ([2]; Rat liver microsomes, 60 min): 105% | microsomal CLint at 1 µM ([3]; Monkey liver microsomes): 1.6 µL/min/mg | half-life at 1 µM ([3]; Monkey liver microsomes 0.5 mg/mL, 1.0 µM): > 2 h | % remaining (60 min) ([3]; Monkey liver microsomes, 60 min): 98.9% | fb (%) [4]: 56.1%
